According to the NIST ThermoML archive (doi:10.1007/s10765-010-0766-0):
Where “and” joins values, the source holds several entries; their conditions need not be identical. Equal entries are not always repeated.

Settings: Liquid, Pycnometric method

FC(F)C(F)(F)OCC(F)(F)F [2,2,2-trifluoroethyl 1,1,2,2-tetrafluoroethyl ether]
Settings | mass density
342.15 K, 16809 kPa | 1418.3 kg/m3
342.15 K, 16812 kPa | 1418.3 kg/m3
343.15 K, 17505 kPa | 1418.1 kg/m3
343.15 K, 17508 kPa | 1418.1 kg/m3
344.15 K, 18201 kPa | 1418 kg/m3
344.15 K, 18203 kPa | 1418 kg/m3
345.15 K, 18896 kPa | 1417.8 kg/m3
345.15 K, 18898 kPa | 1417.8 kg/m3
346.15 K, 19590 kPa | 1417.7 kg/m3
346.15 K, 19592 kPa | 1417.7 kg/m3
347.15 K, 20282 kPa | 1417.5 kg/m3
347.15 K, 20287 kPa | 1417.6 kg/m3
348.15 K, 20974 kPa | 1417.4 kg/m3
348.15 K, 20978 kPa | 1417.4 kg/m3
349.15 K, 21666 kPa | 1417.3 kg/m3
349.15 K, 21671 kPa | 1417.3 kg/m3
350.15 K, 22357 kPa | 1417.1 kg/m3
350.15 K, 22360 kPa | 1417.2 kg/m3
351.15 K, 23047 kPa | 1417 kg/m3
351.15 K, 23050 kPa | 1417 kg/m3
352.15 K, 23735 kPa | 1416.9 kg/m3
352.15 K, 23739 kPa | 1416.9 kg/m3
353.15 K, 24423 kPa | 1416.8 kg/m3
353.15 K, 24426 kPa | 1416.8 kg/m3
354.15 K, 25110 kPa | 1416.6 kg/m3
354.15 K, 25114 kPa | 1416.7 kg/m3
355.15 K, 25797 kPa | 1416.5 kg/m3
355.15 K, 25801 kPa | 1416.5 kg/m3
356.15 K, 26482 kPa | 1416.4 kg/m3
356.15 K, 26486 kPa | 1416.4 kg/m3
357.15 K, 27166 kPa | 1416.3 kg/m3
357.15 K, 27171 kPa | 1416.3 kg/m3
358.15 K, 27851 kPa | 1416.2 kg/m3
358.15 K, 27855 kPa | 1416.2 kg/m3
359.15 K, 5632 kPa | 1334.4 kg/m3
359.15 K, 5637 kPa | 1334.4 kg/m3
359.15 K, 28535 kPa | 1416.1 kg/m3
359.15 K, 28538 kPa | 1416.1 kg/m3
360.15 K, 6174 kPa | 1334.2 kg/m3
360.15 K, 6180 kPa | 1334.2 kg/m3
360.15 K, 29217 kPa | 1415.9 kg/m3
360.15 K, 29220 kPa | 1416 kg/m3
361.15 K, 6718 kPa | 1334.1 kg/m3
361.15 K, 6724 kPa | 1334.1 kg/m3
361.15 K, 29899 kPa | 1415.8 kg/m3
361.15 K, 29902 kPa | 1415.9 kg/m3
362.15 K, 7261 kPa | 1333.9 kg/m3
362.15 K, 7266 kPa | 1333.9 kg/m3
363.15 K, 7803 kPa | 1333.8 kg/m3
363.15 K, 7809 kPa | 1333.8 kg/m3
364.15 K, 8346 kPa | 1333.6 kg/m3
364.15 K, 8350 kPa | 1333.6 kg/m3
365.15 K, 8888 kPa | 1333.5 kg/m3
365.15 K, 8892 kPa | 1333.5 kg/m3
366.15 K, 9430 kPa | 1333.3 kg/m3
366.15 K, 9434 kPa | 1333.4 kg/m3
367.15 K, 9971 kPa | 1333.2 kg/m3
367.15 K, 9976 kPa | 1333.2 kg/m3
368.15 K, 10512 kPa | 1333.1 kg/m3
368.15 K, 10516 kPa | 1333.1 kg/m3
369.15 K, 11053 kPa | 1332.9 kg/m3
369.15 K, 11057 kPa | 1332.9 kg/m3
370.15 K, 11593 kPa | 1332.8 kg/m3
370.15 K, 11598 kPa | 1332.8 kg/m3
371.15 K, 12133 kPa | 1332.7 kg/m3
371.15 K, 12137 kPa | 1332.7 kg/m3
372.15 K, 12673 kPa | 1332.5 kg/m3
372.15 K, 12677 kPa | 1332.6 kg/m3
373.15 K, 13212 kPa | 1332.4 kg/m3
373.15 K, 13216 kPa | 1332.4 kg/m3
374.15 K, 13752 kPa | 1332.3 kg/m3
374.15 K, 13756 kPa | 1332.3 kg/m3
375.15 K, 14290 kPa | 1332.2 kg/m3
375.15 K, 14294 kPa | 1332.2 kg/m3
376.15 K, 14828 kPa | 1332 kg/m3
376.15 K, 14831 kPa | 1332 kg/m3
377.15 K, 15366 kPa | 1331.9 kg/m3
377.15 K, 15369 kPa | 1331.9 kg/m3
378.15 K, 15904 kPa | 1331.8 kg/m3
378.15 K, 15906 kPa | 1331.8 kg/m3
379.15 K, 16441 kPa | 1331.7 kg/m3
379.15 K, 16443 kPa | 1331.7 kg/m3
380.15 K, 16977 kPa | 1331.5 kg/m3
380.15 K, 16980 kPa | 1331.5 kg/m3
381.15 K, 17514 kPa | 1331.4 kg/m3
381.15 K, 17515 kPa | 1331.4 kg/m3
382.15 K, 18050 kPa | 1331.3 kg/m3
382.15 K, 18051 kPa | 1331.3 kg/m3
383.15 K, 18585 kPa | 1331.2 kg/m3
383.15 K, 18586 kPa | 1331.2 kg/m3
384.15 K, 19120 kPa | 1331.1 kg/m3
384.15 K, 19121 kPa | 1331.1 kg/m3
385.15 K, 19655 kPa | 1330.9 kg/m3
385.15 K, 19656 kPa | 1330.9 kg/m3
386.15 K, 20189 kPa | 1330.8 kg/m3
387.15 K, 20723 kPa | 1330.7 kg/m3
388.15 K, 21256 kPa | 1330.6 kg/m3
389.15 K, 21789 kPa | 1330.5 kg/m3
390.15 K, 22322 kPa | 1330.4 kg/m3
391.15 K, 22854 kPa | 1330.3 kg/m3
391.15 K, 22855 kPa | 1330.3 kg/m3
392.15 K, 23385 kPa | 1330.2 kg/m3
392.15 K, 23386 kPa | 1330.2 kg/m3
393.15 K, 23917 kPa | 1330 kg/m3 and 1330.1 kg/m3
394.15 K, 24448 kPa | 1329.9 kg/m3
395.15 K, 24978 kPa | 1329.8 kg/m3
396.15 K, 25507 kPa | 1329.7 kg/m3
396.15 K, 25508 kPa | 1329.7 kg/m3
397.15 K, 26037 kPa | 1329.6 kg/m3
397.15 K, 26038 kPa | 1329.6 kg/m3
398.15 K, 26566 kPa | 1329.5 kg/m3
398.15 K, 26567 kPa | 1329.5 kg/m3
399.15 K, 27094 kPa | 1329.4 kg/m3
399.15 K, 27096 kPa | 1329.4 kg/m3
400.15 K, 27622 kPa | 1329.3 kg/m3
400.15 K, 27623 kPa | 1329.3 kg/m3
401.15 K, 28150 kPa | 1329.2 kg/m3
401.15 K, 28151 kPa | 1329.2 kg/m3
402.15 K, 28677 kPa | 1329.1 kg/m3
402.15 K, 28678 kPa | 1329.2 kg/m3
403.15 K, 29204 kPa | 1329 kg/m3
403.15 K, 29205 kPa | 1329.1 kg/m3
404.15 K, 29730 kPa | 1329 kg/m3
404.15 K, 29732 kPa | 1329 kg/m3
